Patent US10221169B2, “Substituted aminothiazoles for the treatment of tuberculosis” (THE BROAD INSTITUTE, INC., priority 2013, dated 2019)
In brackets after ≈: the same amount, converted by molar mass.

Legend:
[1] = test system: Replicating Mtb; assay: microbe, parasite or virus in culture; format: cell-based, M. tuberculosis H37Rv; conditions: log-phase Mtb; for IC90: Mycobacterium tuberculosis, 72 h, read-out: Replicating Mtb Log MIC IC90 (uM, GFP) (converted)
[2] = test system: Non-replicating Mtb Carbon-starved; assay: Non-replicating carbon-starved Mtb IC99 by luciferase; format: cell-based, M. tuberculosis H37Rv; conditions: Mycobacterium tuberculosis, luciferase readout, 99% killing
[3] = test system: M. tuberculosis; assay: MIC of control anti-tuberculosis antibiotics; format: cell-based; conditions: Mycobacterium tuberculosis, MIC used as reference for 10× MIC

Row | SMILES | IC90 [1] | MIC [2] | Replicating Mtb Log MIC IC90 (uM, GFP) [1] | MIC [3]
1 | Cc1cccnc1Nc1nc(-c2ccccn2)cs1 [Compound 1, N-(3-methylpyridin-2-yl)-4-(pyridin-2-yl)thiazol-2-amine] | 0.5 µM | 1 µM (≈ 0.268 µg/mL) |  | 
2 | Clc1ccc(Nc2nc(-c3ccccn3)cs2)nc1 [Compound 2] | 2 µM | 2 µM (≈ 0.578 µg/mL) |  | 
3 | COc1ccc(Nc2nc(-c3ccccn3)cs2)c(OC)c1 [Compound 3] | 8 µM |  |  | 
4 | FC(F)(F)c1ccccc1Nc1nc(-c2ccccn2)cs1 [Compound 4] | 62 µM |  |  | 
5 | COc1ccc(CCNc2nc(-c3ccccn3)cs2)cc1OC [Compound 5] | 62 µM | 8 µM (≈ 2.73 µg/mL) |  | 
6 | CN(C)c1ccc(Nc2nc(-c3ccccn3)cs2)nc1 [Compound 6] | 125 µM | 8 µM (≈ 2.38 µg/mL) |  | 
7 | Cc1ccccc1Nc1nc(-c2ccccn2)cs1 [Compound 9] | 62 µM | 8 µM (≈ 2.14 µg/mL) |  | 
8 | Cc1cccnc1Nc1nc(-c2cccnc2)cs1 [Compound 10] | 125 µM |  |  | 
9 | Cc1cccnc1Nc1nc(-c2ccncc2)cs1 [Compound 11] |  |  | None detected | 
10 | Cc1ccc(-c2csc(Nc3ncccc3C)n2)cc1 [Compound 12] | 125 µM |  |  | 
11 | c1ccc(Nc2nc(-c3ccccn3)cs2)nc1 [Compound 13] | 8 µM |  |  | 
12 | Cc1ccnc(Nc2nc(-c3ccccn3)cs2)c1 [Compound 14] | 16 µM |  |  | 
13 | C/C(=N\Nc1nc(C)c(C)s1)c1ccc(Br)cc1 [Compound 15] | 62 µM | 16 µM (≈ 5.19 µg/mL) |  | 
14 | Cc1cccnc1Nc1nc(-c2ccccn2)c(Br)s1 [Compound 17, 5-bromo-N-(3-methylpyridin-2-yl)-4-(pyridin-2-yl)thiazol-2-amine] | < 1 µM | < 16 µM |  | 
15 | CCOC(=O)c1sc(Nc2ncccc2C)nc1-c1ccccn1 [Compound 18, ethyl 2-((3-methylpyridin-2-yl)amino)-4-(pyridin-2-yl)thiazole-5-carboxylate] | 4 µM | 8 µM (≈ 2.72 µg/mL) |  | 
16 | Cc1cccnc1Nc1nc(-c2ccccn2)c(CN2CCOCC2)s1 [Compound 19, N-(3-methylpyridin-2-yl)-5-(morpholinomethyl)-4-(pyridin-2-yl)thiazol-2-amine] | 16 µM | 32 µM (≈ 11.8 µg/mL) |  | 
17 | CC(C)(C)OC(=O)COc1cccnc1Nc1nc(-c2ccccn2)cs1 [Compound 20, tert-butyl 2-((2-((4-(pyridin-2-yl)thiazol-2-yl)amino)pyridin-3-yl)oxy)acetate] |  | 4 µM (≈ 1.54 µg/mL) |  | 
18 | O=C(O)COc1cccnc1Nc1nc(-c2ccccn2)cs1 [Compound 21, 2-((2-((4-(pyridin-2-yl)thiazol-2-yl)amtno)pyridin-3-yl)oxy)acetic acid] | 125 µM | > 125 µM |  | 
19 | CO[C@H]1/C=C/O[C@@]2(C)Oc3c(C)c(O)c4c(O)c(c(/C=N/N5CCN(C)CC5)c(O)c4c3C2=O)NC(=O)/C(C)=C\C=C\[C@H](C)[C@H](O)[C@@H](C)[C@@H](O)[C@@H](C)[C@H](OC(C)=O)[C@@H]1C [rifampin] |  |  |  | 0.01 µg/mL
